pKi: −log10 of the molar value. Where a name gives a salt, the structure may show the parent alone.
Biological target: T1, recombinant human CDK1/Cyclin B complex (Homo sapiens, UniProt P06493)
T1 construct: made in house; host or cells: High Five insect cells (baculovirus); Rb substrate made in E. coli M15
Assay: CDK1/Cyclin B kinase assay (FlashPlate or HTRF), Rb protein substrate
Format: biochemical
Settings: Ki=IC50/(1+[S]/Km)
Protocol: To determine inhibition of CDK1 activity, either FlashPlate™ (NEN™-Life Science Products) assay or HTRF assay was performed. Both types of kinase assays were carried out using recombinant human CDK1/Cyclin B complex. GST-cyclinB (GST-cycB) and CDK1cDNA clones in baculovirus vectors were provided by Dr. W. Harper at the Baylor College of Medicine, Houston, Tex. Proteins were co-expressed in High Five™ insect cells and the complex was purified on glutathione Sepharose resin (Pharmacia, Piscataway, N.J.) as previously described (Harper, J. W. et al. Cell 1993, 75, 805-816). A 6×-Histidine tagged truncated form of retinoblastoma (Rb) protein (amino acid 386-928) was used as the substrate for the CDK1/Cyclin B assay (the expression plasmid was provided by Dr. Veronica Sullivan, Department of Molecular Virology, Roche Research Centre, Welwyn Garden City, United Kingdom). The Rb protein is a natural substrate for phosphorylation by CDK1 (see Herwig and Strauss Eur. J. Biochem. Vol. 246 (1997) pp. 581-601 and the references cited therein). The expression of the 62 Kd protein was under the control of an IPTG inducible promoter in an M15 E. coli strain. Cells were lysed by sonication and purification was carried out by binding lysates at pH 8.0 to a Ni-chelated agarose column pretreated with 1 mM imidazole. The resin was then washed several times with incrementally decreasing pH buffers to pH 6.0, and eluted with 500 mM imidazole. Eluted protein was dialyzed against 20 mM HEPES pH 7.5, 30% glycerol, 200 mM NaCl, and 1 mM DTT. Purified Rb fusion protein stocks were quantitated for protein concentration, aliquoted, and stored at −70° C.
For the FlashPlate kinase assay, 96-well FlashPlates were coated with Rb protein at 10 μg/ml, using 100 μl per well. Plates were incubated at 4° C. overnight or at room temperature for 3 hours on a shaker. To control for nonspecific phosphorylation, one row of wells was coated with 100 μl/well coating buffer (20 mM HEPES, 0.2 M NaCl). Plates were then washed twice with wash buffer (0.01% Tween 20 in phosphate-buffered saline). Compounds to be tested (“test compounds”) were added to the wells at 5× final concentration. Reactions were initiated by immediate addition of 40 μl reaction mix (25 mM HEPES, 20 mM MgCl2, 0.002% Tween 20, 2 mM DTT, 1 μM ATP, 4 nM 33P-ATP) and a sufficient amount of enzyme to give counts that were at least 10-fold above background. Plates were incubated at room temperature on a shaker for 30 minutes. Plates were washed four times with the wash buffer, sealed, and counted on the TopCount scintillation counter (Packard Instrument Co., Downers Grove, Ill.]. The percent inhibition of Rb phosphorylation, which is a measure of the inhibition of CDK activity, was determined according to the following formula:
[formula] where “test compound” refers to the average counts per minute of the test duplicates, “nonspecific” refers to the average counts per minute when no CDK1/Cyclin B, etc., was added, and “total” refers to the average counts per minute when no compound was added. The IC50 value is the concentration of test compound that reduces by 50% the protein-kinase induced incorporation of the radiolabel under the test conditions described. The value of the inhibitor constant Ki is calculated by the following: Ki=IC50/(1+[S]/Km), where [S] is the ATP concentration and Km is Michaelis constant.
The Homofeneous Time Resolved Fluorescence (HTRF) kinase assay was carried out in 96-well polypropylene plates (BD Biosciences, Bedford, Mass.). Test compounds were first dissolved in DMSO, and then diluted in kinase assay buffer 1 (25 mM HEPES, pH7.0, 8 mM MgCl2, 1.5 mM DTT, and 162 μM ATP) with DMSO concentration at 15%. The CDK1/Cyclin B enzyme was diluted in kinase assay buffer 2 (25 mM HEPES, pH 7.0, 8 mM MgCl2, 0.003% Tween 20, 0.045% BSA, 1.5 mM DTT, and 0.675 μM Rb protein). […]

T1 sequence (P06493 whole entry): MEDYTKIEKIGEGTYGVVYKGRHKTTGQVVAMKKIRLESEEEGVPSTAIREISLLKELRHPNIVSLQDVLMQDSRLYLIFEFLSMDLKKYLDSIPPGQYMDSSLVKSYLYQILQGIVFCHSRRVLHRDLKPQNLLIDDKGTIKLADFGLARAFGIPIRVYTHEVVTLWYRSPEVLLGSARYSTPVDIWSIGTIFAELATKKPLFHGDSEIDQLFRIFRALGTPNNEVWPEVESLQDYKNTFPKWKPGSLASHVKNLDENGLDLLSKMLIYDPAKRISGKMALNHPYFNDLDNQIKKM
T1 sequence (P14635 whole entry partner): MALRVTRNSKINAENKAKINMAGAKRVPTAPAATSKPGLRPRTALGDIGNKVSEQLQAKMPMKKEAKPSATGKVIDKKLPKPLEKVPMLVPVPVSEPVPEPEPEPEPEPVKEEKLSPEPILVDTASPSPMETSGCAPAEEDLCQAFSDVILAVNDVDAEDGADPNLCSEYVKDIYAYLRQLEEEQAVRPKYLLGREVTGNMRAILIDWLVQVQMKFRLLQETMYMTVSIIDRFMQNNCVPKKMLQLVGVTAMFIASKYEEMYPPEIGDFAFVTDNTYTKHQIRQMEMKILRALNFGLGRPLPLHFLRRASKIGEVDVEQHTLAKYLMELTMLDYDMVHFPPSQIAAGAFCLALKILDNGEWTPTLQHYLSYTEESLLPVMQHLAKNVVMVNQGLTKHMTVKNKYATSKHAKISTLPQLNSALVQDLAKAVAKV

SMILES	pKi
COC(=O)c1cnc2ccc(/C=C3\SC(N[C@@H](CO)c4ccccc4)=NC3=O)cc2c1OC [Example 5, 6-[2-((R)-2-Hydroxy-1-phenyl-ethylamino)-4-oxo-4H-thiazol-(5Z)-ylidenemethyl]-4-methoxy-quinoline-3-carboxylic acid methyl ester]	6.75
COc1c(C(=O)N(C)C)cnc2ccc(/C=C3\SC(N[C@@H]4C[C@H]4c4ccccc4)=NC3=O)cc12 [Example 10, 4-Methoxy-6-[4-oxo-2-((1R,2S)-2-phenyl-cyclopropylamino)-4H-thiazol-(5Z)-ylidenemethyl]-quinoline-3-carboxylic acid dimethylamide]	6.02
CCOc1c(C#N)cnc2ccc(/C=C3\SC(N)=NC3=O)cc12 [Example 15, 6-[2-Amino-4-oxo-4H-thiazol-(5Z)-ylidenemethyl]-4-ethoxy-quinoline-3-carbonitrile]	8.10
CCOc1c(C#N)cnc2ccc(/C=C3\SC(NCCn4ccnc4)=NC3=O)cc12 [Example 20, 4-Ethoxy-6-[2-(2-imidazol-1-yl-ethylamino)-4-oxo-4H-thiazol-(5Z)-ylidenemethyl]-quinoline-3-carbonitrile]	6.64
CCOc1c(C#N)cnc2ccc(/C=C3\SC(NCCOCCOC)=NC3=O)cc12 [Example 25, 6-[2-[2-(2-methoxy-ethoxy)-ethylamino]-4-oxo-4H-thiazol-(5Z)-ylidenemethyl]-4-ethoxy-quinoline-3-carbonitrile]	6.00
N#Cc1cnc2ccc(/C=C3\SC(N)=NC3=O)cc2c1OC1CCNCC1 [Example 30, 6-[2-Amino-4-oxo-4H-thiazol-(5Z)-ylidenemethyl]-4-(piperidin-4-yloxy)-quinoline-3-carbonitrile hydrochloride]	6.74
CC(C)Sc1c(C#N)cnc2ccc(/C=C3\SC(N)=NC3=O)cc12 [Example 40, 6-[2-amino-4-oxo-4H-thiazol-(5Z)-ylidenemethyl]-4-isopropylsulfanyl-quinoline-3-carbonitrile]	7.80
N#Cc1cnc2ccc(/C=C3\SC(N)=NC3=O)cc2c1SCCCO [Example 50, 6-[2-Amino-4-oxo-4H-thiazol-(5Z)-ylidenemethyl]-4-(3-hydroxy-propylsulfanyl)-quinoline-3-carbonitrile]	7.19
CC(C)Oc1c(C#N)cnc2ccc(/C=C3\SC(NN)=NC3=O)cc12 [Example 60, 6-[2-Hydrazino-4-oxo-4H-thiazol-(5Z)-ylidenemethyl]-4-isopropoxy-quinoline-3-carbonitrile hydrochloride salt]	7.55
CC(C)(C)COc1c(C#N)cnc2ccc(/C=C3\SC(NC4CC4)=NC3=O)cc12 [Example 70, 6-[2-Cyclopropylamino-4-oxo-4H-thiazol-(5Z)-ylidenemethyl]-4-(2,2-dimethyl-propoxy)-quinoline-3-carbonitrile]	8.22
CCCCOc1c(C#N)cnc2ccc(/C=C3\SC(N)=NC3=O)cc12 [Example 80, 6-[2-Amino-4-oxo-4H-thiazol-(5Z)-ylidenemethyl]-4-butoxy-quinoline-3-carbonitrile]	9.00

Source: patent US7250515B2, “Thiazolinone 3,4-disubstituted quinolines” (Hoffman-La Roche Inc., priority 2004, dated 2007)
